Assay results from patent publication US6960574B2, “Antagonists of RF-amide neuropeptides” (University of Florida, priority 2002, dated 2005).
Peptide text beside a SMILES is read from it. * marks the point of attachment. Dansyl = CN(C)c1cccc2c(S(=O)(=O)*)cccc12

These compounds were tested on receptor labeled by the radioiodinated analogue of 1 (4, [125I]-YLFQPQRF-NH2); neuropeptide FF receptor (assay: Competitive radioligand binding against 4 ([125I]Y8F-amide)). Details: mixture-based positional scanning; difference from averaged radioligand displacement of whole library (0); about 80 a.u. = 10-fold change in Ki.

SMILES	Relative Binding Index (RBI) [a.u.]
CN(C)c1cccc2c(S(=O)(=O)N[C@@H](Cc3c[nH]cn3)C(=O)N[C@@H](CC(=O)O)C(=O)N[C@@H](CCCNC(=N)N)C(N)=O)cccc12 [Dansyl-HDR-amide] (Dansyl-His-Asp-Arg-NH2)	−1
CN(C)c1cccc2c(S(=O)(=O)N[C@@H](Cc3c[nH]cn3)C(=O)N[C@@H](CCC(=O)O)C(=O)N[C@@H](CCCNC(=N)N)C(N)=O)cccc12 [Dansyl-HER-amide] (Dansyl-His-Glu-Arg-NH2)	17
CN(C)c1cccc2c(S(=O)(=O)N[C@@H](Cc3cnc[nH]3)C(=O)N[C@@H](Cc3ccccc3)C(=O)N[C@@H](CCCNC(=N)N)C(N)=O)cccc12 [Dansyl-HFR-amide] (Dansyl-His-Phe-Arg-NH2)	15
CN(C)c1cccc2c(S(=O)(=O)N[C@@H](Cc3c[nH]cn3)C(=O)NCC(=O)N[C@@H](CCCNC(=N)N)C(N)=O)cccc12 [Dansyl-HGR-amide] (Dansyl-His-Gly-Arg-NH2)	22
CN(C)c1cccc2c(S(=O)(=O)N[C@@H](Cc3c[nH]cn3)C(=O)N[C@@H](Cc3c[nH]cn3)C(=O)N[C@@H](CCCNC(=N)N)C(N)=O)cccc12 [Dansyl-HHR-amide] (Dansyl-His-His-Arg-NH2)	11
CC[C@H](C)[C@H](NC(=O)[C@H](Cc1c[nH]cn1)NS(=O)(=O)c1cccc2c(N(C)C)cccc12)C(=O)N[C@@H](CCCNC(=N)N)C(N)=O [Dansyl-HIR-amide] (Dansyl-His-Ile-Arg-NH2)	23
CN(C)c1cccc2c(S(=O)(=O)N[C@@H](Cc3cnc[nH]3)C(=O)N[C@@H](CCCCN)C(=O)N[C@@H](CCCNC(=N)N)C(N)=O)cccc12 [Dansyl-HKR-amide] (Dansyl-His-Lys-Arg-NH2)	14
CC(C)C[C@H](NC(=O)[C@H](Cc1cnc[nH]1)NS(=O)(=O)c1cccc2c(N(C)C)cccc12)C(=O)N[C@@H](CCCNC(=N)N)C(N)=O [Dansyl-HLR-amide] (Dansyl-His-Leu-Arg-NH2)	8
CSCC[C@H](NC(=O)[C@H](Cc1cnc[nH]1)NS(=O)(=O)c1cccc2c(N(C)C)cccc12)C(=O)N[C@@H](CCCNC(=N)N)C(N)=O [Dansyl-HMR-amide] (Dansyl-His-Met-Arg-NH2)	17
CN(C)c1cccc2c(S(=O)(=O)N[C@@H](Cc3c[nH]cn3)C(=O)N[C@@H](CC(N)=O)C(=O)N[C@@H](CCCNC(=N)N)C(N)=O)cccc12 [Dansyl-HNR-amide] (Dansyl-His-Asn-Arg-NH2)	18
CN(C)c1cccc2c(S(=O)(=O)N[C@@H](Cc3cnc[nH]3)C(=O)N3CCC[C@H]3C(=O)N[C@@H](CCCNC(=N)N)C(N)=O)cccc12 [Dansyl-HPR-amide] (Dansyl-His-Pro-Arg-NH2)	20
CN(C)c1cccc2c(S(=O)(=O)N[C@@H](Cc3cnc[nH]3)C(=O)N[C@@H](CCC(N)=O)C(=O)N[C@@H](CCCNC(=N)N)C(N)=O)cccc12 [Dansyl-HQR-amide] (Dansyl-His-Gln-Arg-NH2)	30
CN(C)c1cccc2c(S(=O)(=O)N[C@@H](Cc3cnc[nH]3)C(=O)N[C@@H](CCCNC(=N)N)C(=O)N[C@@H](CCCNC(=N)N)C(N)=O)cccc12 [Dansyl-HRR-amide] (Dansyl-His-Arg-Arg-NH2)	15
CN(C)c1cccc2c(S(=O)(=O)N[C@@H](Cc3c[nH]cn3)C(=O)N[C@@H](CO)C(=O)N[C@@H](CCCNC(=N)N)C(N)=O)cccc12 [Dansyl-HSR-amide] (Dansyl-His-Ser-Arg-NH2)	37
C[C@@H](O)[C@H](NC(=O)[C@H](Cc1cnc[nH]1)NS(=O)(=O)c1cccc2c(N(C)C)cccc12)C(=O)N[C@@H](CCCNC(=N)N)C(N)=O [Dansyl-HTR-amide] (Dansyl-His-Thr-Arg-NH2)	22
CC(C)[C@H](NC(=O)[C@H](Cc1c[nH]cn1)NS(=O)(=O)c1cccc2c(N(C)C)cccc12)C(=O)N[C@@H](CCCNC(=N)N)C(N)=O [Dansyl-HVR-amide] (Dansyl-His-Val-Arg-NH2)	12
CN(C)c1cccc2c(S(=O)(=O)N[C@@H](Cc3cnc[nH]3)C(=O)N[C@@H](Cc3c[nH]c4ccccc34)C(=O)N[C@@H](CCCNC(=N)N)C(N)=O)cccc12 [Dansyl-HWR-amide] (Dansyl-His-Trp-Arg-NH2)	26
CN(C)c1cccc2c(S(=O)(=O)N[C@@H](Cc3c[nH]cn3)C(=O)N[C@@H](Cc3ccc(O)cc3)C(=O)N[C@@H](CCCNC(=N)N)C(N)=O)cccc12 [Dansyl-HYR-amide] (Dansyl-His-Tyr-Arg-NH2)	16
CC[C@H](C)[C@H](NS(=O)(=O)c1cccc2c(N(C)C)cccc12)C(=O)N[C@@H](C)C(=O)N[C@@H](CCCNC(=N)N)C(N)=O [Dansyl-IAR-amide] (Dansyl-Ile-Ala-Arg-NH2)	−60
CC[C@H](C)[C@H](NS(=O)(=O)c1cccc2c(N(C)C)cccc12)C(=O)N[C@@H](CC(=O)O)C(=O)N[C@@H](CCCNC(=N)N)C(N)=O [Dansyl-IDR-amide] (Dansyl-Ile-Asp-Arg-NH2)	−29

SMILES	Relative Binding Index (RBI) [a.u.]
CC[C@H](C)[C@H](NS(=O)(=O)c1cccc2c(N(C)C)cccc12)C(=O)N[C@@H](CCC(=O)O)C(=O)N[C@@H](CCCNC(=N)N)C(N)=O [Dansyl-IER-amide] (Dansyl-Ile-Glu-Arg-NH2)	−11
CC[C@H](C)[C@H](NS(=O)(=O)c1cccc2c(N(C)C)cccc12)C(=O)N[C@@H](Cc1ccccc1)C(=O)N[C@@H](CCCNC(=N)N)C(N)=O [Dansyl-IFR-amide] (Dansyl-Ile-Phe-Arg-NH2)	−12
CC[C@H](C)[C@H](NS(=O)(=O)c1cccc2c(N(C)C)cccc12)C(=O)NCC(=O)N[C@@H](CCCNC(=N)N)C(N)=O [Dansyl-IGR-amide] (Dansyl-Ile-Gly-Arg-NH2)	−6
CC[C@H](C)[C@H](NS(=O)(=O)c1cccc2c(N(C)C)cccc12)C(=O)N[C@@H](Cc1c[nH]cn1)C(=O)N[C@@H](CCCNC(=N)N)C(N)=O [Dansyl-IHR-amide] (Dansyl-Ile-His-Arg-NH2)	−17
CC[C@H](C)[C@H](NC(=O)[C@@H](NS(=O)(=O)c1cccc2c(N(C)C)cccc12)[C@@H](C)CC)C(=O)N[C@@H](CCCNC(=N)N)C(N)=O [Dansyl-IIR-amide] (Dansyl-Ile-Ile-Arg-NH2)	−5
CCC(C)C(NS(=O)(=O)c1cccc2c(N(C)C)cccc12)C(=O)NC(CCCCN)C(=O)NC(CCCNC(=N)N)C(N)=O (stereo not drawn) [Dansyl-IKR-amide] (Dansyl-Ile-Lys-Arg-NH2; configuration not given here)	−13
CC[C@H](C)[C@H](NS(=O)(=O)c1cccc2c(N(C)C)cccc12)C(=O)N[C@@H](CC(C)C)C(=O)N[C@@H](CCCNC(=N)N)C(N)=O [Dansyl-ILR-amide] (Dansyl-Ile-Leu-Arg-NH2)	−19
CC[C@H](C)[C@H](NS(=O)(=O)c1cccc2c(N(C)C)cccc12)C(=O)N[C@@H](CCSC)C(=O)N[C@@H](CCCNC(=N)N)C(N)=O [Dansyl-IMR-amide] (Dansyl-Ile-Met-Arg-NH2)	−11
CC[C@H](C)[C@H](NS(=O)(=O)c1cccc2c(N(C)C)cccc12)C(=O)N[C@@H](CC(N)=O)C(=O)N[C@@H](CCCNC(=N)N)C(N)=O [Dansyl-INR-amide] (Dansyl-Ile-Asn-Arg-NH2)	−10
CC[C@H](C)[C@H](NS(=O)(=O)c1cccc2c(N(C)C)cccc12)C(=O)N1CCC[C@H]1C(=O)N[C@@H](CCCNC(=N)N)C(N)=O [Dansyl-IPR-amide] (Dansyl-Ile-Pro-Arg-NH2)	−8
CC[C@H](C)[C@H](NS(=O)(=O)c1cccc2c(N(C)C)cccc12)C(=O)N[C@@H](CCC(N)=O)C(=O)N[C@@H](CCCNC(=N)N)C(N)=O [Dansyl-IQR-amide] (Dansyl-Ile-Gln-Arg-NH2)	3
CC[C@H](C)[C@H](NS(=O)(=O)c1cccc2c(N(C)C)cccc12)C(=O)N[C@@H](CCCNC(=N)N)C(=O)N[C@@H](CCCNC(=N)N)C(N)=O [Dansyl-IRR-amide] (Dansyl-Ile-Arg-Arg-NH2)	−12
CC[C@H](C)[C@H](NS(=O)(=O)c1cccc2c(N(C)C)cccc12)C(=O)N[C@@H](CO)C(=O)N[C@@H](CCCNC(=N)N)C(N)=O [Dansyl-ISR-amide] (Dansyl-Ile-Ser-Arg-NH2)	10
CC[C@H](C)[C@H](NS(=O)(=O)c1cccc2c(N(C)C)cccc12)C(=O)N[C@H](C(=O)N[C@@H](CCCNC(=N)N)C(N)=O)[C@@H](C)O [Dansyl-ITR-amide] (Dansyl-Ile-Thr-Arg-NH2)	−6
CC[C@H](C)[C@H](NS(=O)(=O)c1cccc2c(N(C)C)cccc12)C(=O)N[C@H](C(=O)N[C@@H](CCCNC(=N)N)C(N)=O)C(C)C [Dansyl-IVR-amide] (Dansyl-Ile-Val-Arg-NH2)	−16
CC[C@H](C)[C@H](NS(=O)(=O)c1cccc2c(N(C)C)cccc12)C(=O)N[C@@H](Cc1c[nH]c2ccccc12)C(=O)N[C@@H](CCCNC(=N)N)C(N)=O [Dansyl-IWR-amide] (Dansyl-Ile-Trp-Arg-NH2)	−2
CC[C@H](C)[C@H](NS(=O)(=O)c1cccc2c(N(C)C)cccc12)C(=O)N[C@@H](Cc1ccc(O)cc1)C(=O)N[C@@H](CCCNC(=N)N)C(N)=O [Dansyl-IYR-amide] (Dansyl-Ile-Tyr-Arg-NH2)	−12
C[C@H](NC(=O)[C@H](CCCCN)NS(=O)(=O)c1cccc2c(N(C)C)cccc12)C(=O)N[C@@H](CCCNC(=N)N)C(N)=O [Dansyl-KAR-amide] (Dansyl-Lys-Ala-Arg-NH2)	−24
CN(C)c1cccc2c(S(=O)(=O)N[C@@H](CCCCN)C(=O)N[C@@H](CC(=O)O)C(=O)N[C@@H](CCCNC(=N)N)C(N)=O)cccc12 [Dansyl-KDR-amide] (Dansyl-Lys-Asp-Arg-NH2)	7
